{"source": "patent US20210156868A1", "about": "“COMPOSITIONS AND METHODS FOR DETECTING ALBUMIN” (Tournament BioVenture LLC, priority 2019, published 2021)", "key": {"[1]": {"tested_on": "human serum non-HSA esterase activity", "assay": "Inactivation of non-HSA esterase activity in mix of 20 human sera (FIG. 6, FIG. 7)", "format": "biochemical", "conditions": "1 mM Pefabloc SC, 24° C., hydrochloride", "method": "When human serum was incubated with 1 mM Pefabloc, the non-HSA esterase activity can be abolished in about 10 minutes."}, "[2]": {"biological_target": "HSA pseudo esterase activity (Homo sapiens, UniProt P02768)", "sequence (P02768 25-609)": "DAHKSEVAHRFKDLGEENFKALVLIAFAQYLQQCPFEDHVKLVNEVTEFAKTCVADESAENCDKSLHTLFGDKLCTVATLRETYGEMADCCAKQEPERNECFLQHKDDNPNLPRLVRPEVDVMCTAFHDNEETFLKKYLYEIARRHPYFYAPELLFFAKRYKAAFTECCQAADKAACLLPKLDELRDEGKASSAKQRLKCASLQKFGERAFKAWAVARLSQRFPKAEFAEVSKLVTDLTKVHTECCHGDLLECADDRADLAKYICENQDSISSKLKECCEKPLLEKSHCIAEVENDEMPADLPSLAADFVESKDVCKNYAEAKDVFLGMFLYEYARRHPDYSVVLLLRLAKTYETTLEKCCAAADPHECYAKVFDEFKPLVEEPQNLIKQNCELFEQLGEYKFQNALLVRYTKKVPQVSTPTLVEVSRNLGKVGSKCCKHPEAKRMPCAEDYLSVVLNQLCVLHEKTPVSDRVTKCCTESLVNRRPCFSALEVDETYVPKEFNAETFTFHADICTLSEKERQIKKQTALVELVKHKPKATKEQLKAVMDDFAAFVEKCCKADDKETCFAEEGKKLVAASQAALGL", "conditions": "2 mM Pefabloc SC incubation; HSA 44 mg/ml in TBS, pH 7.4; hydrochloride"}, "[3]": {"tested_on": "non-albumin esterase activity (PLA2 activity in human serum, associated with LDL or HDL)", "assay": "Inhibition of non-albumin esterase (PLA2) activity with 14:0 NPS-PC as probe (FIG. 4)", "format": "biochemical", "conditions": "for sensitivity of non-albumin (LDL/HDL, PLA2) esterase activity compared to pseudo esterase activity of albumin: human serum, 14:0 NPS-PC probe", "method": "The reaction was started by the addition of 110 μl of TBS reaction buffer (10 mM Tris-HCl, 150 mM NaCl, pH 7.4) containing […] 14:0 NPS-PC and 5 mM EDTA to 20 μl of HSA solution in a well of a 96-well plate. The reactions were followed at wavelength 405 nm (absorbance) in a SPECTRAmax M5 plate reader.\nAs shown in EXAMPLE 1, using 14:0 NPS-PC as probe also identified non-albumin esterase activity, i.e. PLA2 activity in human serum, which is mainly associated with HDL and LDL. […] Pefabloc at 15-20 mM (final concentration) can eliminate all non-albumin esterase activity but maintain >90% of albumin esterase activity when assayed with 1.5 mM 14:0 NPS-PC at pH 7.4."}, "[4]": {"tested_on": "non-HSA esterase activity associated with HDL", "assay": "Inactivation of HDL-associated esterase activity on incubation with Pefabloc SC (FIG. 5)", "format": "biochemical, human", "conditions": "2 mM Pefabloc SC"}, "[5]": {"assay": "Solubility in water", "format": "physicochemical"}, "[6]": {"tested_on": "Ca^2+ dependent PLA2", "conditions": "5 mM in the assay buffer"}, "[7]": {"biological_target": "albumin (Homo sapiens, UniProt P02768)", "sequence (P02768 25-609)": "as above", "assay": "Effects of solvent and additives on pseudo-lipase activity of albumin (FIG. 13)", "format": "biochemical", "description": "Dimethyl sulfoxide (DMSO), EDTA and Tween-20 had been used to determine the tolerable concentration of organic solvent."}, "[8]": {"biological_target": "HSA pseudo esterase (Homo sapiens, UniProt P02768)", "sequence (P02768 25-609)": "as above", "assay": "Michaelis-Menten kinetics of HSA pseudo esterase (FIG. 3)", "format": "biochemical", "conditions": "14:0 NPS-PC as probe"}}, "note": "“Also recorded” adds a separate entry of the source."}
{"smiles": "Cl.NCCc1ccc(S(=O)(=O)F)cc1", "note": "[Pefabloc SC, 4-(2-aminoethyl)benzenesulfonyl fluoride hydrochloride]", "values": [{"measurement": "incubation time to complete inactivation of human serum non-HSA esterase activity", "setting": "[1]", "value": "about 15 min"}, {"measurement": "incubation time to complete inactivation of human serum non-HSA esterase activity", "setting": "[1]; listed as Pefabloc", "value": "about 10 min"}, {"measurement": "inactivation of HSA pseudo esterase activity", "setting": "[2]", "value": "No inactivation; also recorded: no activity loss"}, {"measurement": "sensitivity of non-albumin (LDL/HDL, PLA2) esterase activity compared to pseudo esterase activity of albumin", "setting": "[3]", "value": "much more sensitive"}, {"measurement": "non-albumin esterase activity", "setting": "[3]; inhibitor 15-20 mM final concentration, 1.5 mM 14:0 NPS-PC, pH 7.4", "value": "eliminate all"}, {"measurement": "non-HSA esterase activity associated with HDL depleted", "setting": "[4]; 6 hr of incubation, HDL 2.5 mg/ml of cholesterol", "value": "About 80%"}, {"measurement": "incubation time to complete inactivation of HDL-associated esterase activity", "setting": "[4]; purified HDL", "value": "6 to 10", "unit": "h"}]}
{"smiles": "CCN(CC)CCN(Cc1ccc(-c2ccc(C(F)(F)F)cc2)cc1)C(=O)Cn1c(SCc2ccc(F)cc2)nc(=O)c2c1CCC2", "note": "[darapladib]", "values": [{"measurement": "solubility in water", "setting": "[5]", "value": "insoluble in water"}]}
{"smiles": "O=C(O)CN(CCN(CC(=O)O)CC(=O)O)CC(=O)O", "note": "[EDTA]", "values": [{"measurement": "activity of Ca^2+ dependent PLA2 towards 14:0 NPS-PC", "setting": "[6]", "value": "suppresses"}]}
{"smiles": "C[S+](C)[O-]", "note": "[DMSO, Dimethyl sulfoxide]", "values": [{"measurement": "effect on the assay of albumin", "setting": "[7]", "value": "does not have effects"}]}
{"smiles": "CCCCCCCCCCCCCC(=O)OC[C@H](COP(=O)([O-])OCC[N+](C)(C)C)OC(=O)CCC(=O)Oc1ccc([N+](=O)[O-])cc1", "note": "[14:0 NPS-PC, 1-myristoyl-2-(4-nitrophenylsuccinyl)-sn-glycero-3-phosphocholine]", "values": [{"measurement": "Km in the pseudo esterase reaction of HSA", "setting": "[8]", "value": "relative low Km"}]}
{"smiles": "O=S(=O)(F)Cc1ccccc1", "note": "[PMSF, phenylmethylsulfonyl fluoride]", "values": [{"measurement": "sensitivity of non-albumin (LDL/HDL, PLA2) esterase activity compared to pseudo esterase activity of albumin", "setting": "[3]", "value": "much more sensitive"}]}
